# According to the NIST ThermoML archive (doi:10.1021/je300993n):
# Numbers after ± are expanded uncertainties.
# Assay: not given
# Settings: 293.15 K; 101.33 kPa; Crystal 2; gas displacement
row,mass density,Compound
1,1140 ± 16 kg/m3,"CCCC[N+](CC)(CC)CC.F[B-](F)(F)F [N,N,N-triethyl-N-butylammonium tetrafluoroborate]"
2,1190 ± 16 kg/m3,"CCCCCCCC[N+](CC)(CC)CC.F[P-](F)(F)(F)(F)F [N,N,N-triethyl-N-octylammonium hexafluorophosphate]"

# Same assay, conditions: 293.15 K; 101.33 kPa; Crystal; gas displacement
row,mass density,Compound
1,1488 ± 16 kg/m3,"CCCCCC[N+](CC)(CC)CC.[F][Sb-]([F])([F])([F])([F])[F] [N,N,N-triethyl-N-hexylammonium hexafluoroantimonate]"
2,1065 ± 16 kg/m3,"CCCCCCCC[N+](CC)(CC)CC.F[B-](F)(F)F [N,N,N-triethyl-N-octylammonium tetrafluoroborate]"
3,1440 ± 16 kg/m3,CC[N+](CC)(CC)CC.F[P-](F)(F)(F)(F)F [tetraethylammonium hexafluorophosphate]
4,1220 ± 16 kg/m3,CC[N+](CC)(CC)CC.F[B-](F)(F)F [tetraethylammonium tetrafluoroborate]

# The next lines start with the compound.
row,Compound,mass density
1,"CCCC[N+](CC)(CC)CC.F[P-](F)(F)(F)(F)F [N,N,N-triethyl-N-butylammonium hexafluorophosphate]",1366 ± 16 kg/m3
2,"CCCCCC[N+](CC)(CC)CC.F[P-](F)(F)(F)(F)F [N,N,N-triethyl-N-hexylammonium hexafluorophosphate]",1351 ± 16 kg/m3
3,"CCCCCC[N+](CC)(CC)CC.F[B-](F)(F)F [N,N,N-triethyl-N-hexylammonium tetrafluoroborate]",1094 ± 16 kg/m3

# Same assay, conditions: 293.15 K; 101.33 kPa; Liquid; gas displacement
row,mass density,Compound
1,1715 ± 16 kg/m3,CC[N+](CC)(CC)CC.[F][Sb-]([F])([F])([F])([F])[F] [tetraethylammonium hexafluoroantimonate]

# Same assay, conditions: Crystal 1; DTA
row,Normal melting temperature,Compound
1,178.90 ± 0.5 °C,"CCCC[N+](CC)(CC)CC.F[P-](F)(F)(F)(F)F [N,N,N-triethyl-N-butylammonium hexafluorophosphate]"
2,161.90 ± 0.5 °C,"CCCC[N+](CC)(CC)CC.F[B-](F)(F)F [N,N,N-triethyl-N-butylammonium tetrafluoroborate]"
3,88.30 ± 0.5 °C,"CCCCCCCC[N+](CC)(CC)CC.F[P-](F)(F)(F)(F)F [N,N,N-triethyl-N-octylammonium hexafluorophosphate]"

# Same assay, conditions: Crystal 2; DTA
row,Triple point temperature,Compound
1,305.85 ± 0.5 K,"CCCC[N+](CC)(CC)CC.F[B-](F)(F)F [N,N,N-triethyl-N-butylammonium tetrafluoroborate]"
2,311.65 ± 0.5 K,"CCCCCCCC[N+](CC)(CC)CC.F[P-](F)(F)(F)(F)F [N,N,N-triethyl-N-octylammonium hexafluorophosphate]"

# Same assay, conditions: Crystal; DTA
row,Normal melting temperature,Compound
1,174.00 ± 0.5 °C,"CCCCCC[N+](CC)(CC)CC.[F][Sb-]([F])([F])([F])([F])[F] [N,N,N-triethyl-N-hexylammonium hexafluoroantimonate]"
2,101.40 ± 0.5 °C,"CCCCCCCC[N+](CC)(CC)CC.F[B-](F)(F)F [N,N,N-triethyl-N-octylammonium tetrafluoroborate]"
3,77.10 ± 0.5 °C,CC[N+](CC)(CC)CC.F[P-](F)(F)(F)(F)F [tetraethylammonium hexafluorophosphate]
4,71.40 ± 0.5 °C,CC[N+](CC)(CC)CC.F[B-](F)(F)F [tetraethylammonium tetrafluoroborate]

# The next lines start with the compound.
row,Compound,Normal melting temperature
1,"CCCCCC[N+](CC)(CC)CC.F[P-](F)(F)(F)(F)F [N,N,N-triethyl-N-hexylammonium hexafluorophosphate]",161.60 ± 0.5 °C
2,"CCCCCC[N+](CC)(CC)CC.F[B-](F)(F)F [N,N,N-triethyl-N-hexylammonium tetrafluoroborate]",88.20 ± 0.5 °C

# Assay: refractive index (Na D-line) (dimensionless); wn = mass fraction of the nth substance listed
# Settings: 293.15 K; 101 kPa; Liquid; Standard Abbe refractometry; w1 = 0.1
row,refractive index,Compound
1,1.3451 ± 0.0052,"CCCC[N+](CC)(CC)CC.F[B-](F)(F)F [N,N,N-triethyl-N-butylammonium tetrafluoroborate] + O=S(=O)(O)C(F)(F)F"
2,1.3421 ± 0.0052,"CCCCCC[N+](CC)(CC)CC.F[P-](F)(F)(F)(F)F [N,N,N-triethyl-N-hexylammonium hexafluorophosphate] + O=S(=O)(O)C(F)(F)F"
3,1.3398 ± 0.0051,CC[N+](CC)(CC)CC.F[P-](F)(F)(F)(F)F [tetraethylammonium hexafluorophosphate] + O=S(=O)(O)C(F)(F)F
4,1.3421 ± 0.0051,CC[N+](CC)(CC)CC.F[B-](F)(F)F [tetraethylammonium tetrafluoroborate] + O=S(=O)(O)C(F)(F)F

# The next lines start with the compound.
row,Compound,refractive index
1,"CCCC[N+](CC)(CC)CC.F[P-](F)(F)(F)(F)F [N,N,N-triethyl-N-butylammonium hexafluorophosphate] + O=S(=O)(O)C(F)(F)F",1.3405 ± 0.0052
2,"CCCCCC[N+](CC)(CC)CC.[F][Sb-]([F])([F])([F])([F])[F] [N,N,N-triethyl-N-hexylammonium hexafluoroantimonate] + O=S(=O)(O)C(F)(F)F",1.3381 ± 0.0051
3,"CCCCCC[N+](CC)(CC)CC.F[B-](F)(F)F [N,N,N-triethyl-N-hexylammonium tetrafluoroborate] + O=S(=O)(O)C(F)(F)F",1.3475 ± 0.0052
4,"CCCCCCCC[N+](CC)(CC)CC.F[P-](F)(F)(F)(F)F [N,N,N-triethyl-N-octylammonium hexafluorophosphate] + O=S(=O)(O)C(F)(F)F",1.3427 ± 0.0052
5,"CCCCCCCC[N+](CC)(CC)CC.F[B-](F)(F)F [N,N,N-triethyl-N-octylammonium tetrafluoroborate] + O=S(=O)(O)C(F)(F)F",1.3493 ± 0.0052
6,CC[N+](CC)(CC)CC.[F][Sb-]([F])([F])([F])([F])[F] [tetraethylammonium hexafluoroantimonate] + O=S(=O)(O)C(F)(F)F,1.3349 ± 0.0051

# Same assay, conditions: 293.15 K; 101 kPa; Liquid; Standard Abbe refractometry; w1 = 0.2
row,refractive index,Compound
1,1.3543 ± 0.0051,"CCCC[N+](CC)(CC)CC.F[B-](F)(F)F [N,N,N-triethyl-N-butylammonium tetrafluoroborate] + O=S(=O)(O)C(F)(F)F"
2,1.3549 ± 0.0052,"CCCCCC[N+](CC)(CC)CC.F[P-](F)(F)(F)(F)F [N,N,N-triethyl-N-hexylammonium hexafluorophosphate] + O=S(=O)(O)C(F)(F)F"
3,1.3499 ± 0.0051,CC[N+](CC)(CC)CC.F[P-](F)(F)(F)(F)F [tetraethylammonium hexafluorophosphate] + O=S(=O)(O)C(F)(F)F
4,1.3512 ± 0.0051,CC[N+](CC)(CC)CC.F[B-](F)(F)F [tetraethylammonium tetrafluoroborate] + O=S(=O)(O)C(F)(F)F

# Second part, the compound before the results:
row,Compound,refractive index
1,"CCCC[N+](CC)(CC)CC.F[P-](F)(F)(F)(F)F [N,N,N-triethyl-N-butylammonium hexafluorophosphate] + O=S(=O)(O)C(F)(F)F",1.3522 ± 0.0052
2,"CCCCCC[N+](CC)(CC)CC.[F][Sb-]([F])([F])([F])([F])[F] [N,N,N-triethyl-N-hexylammonium hexafluoroantimonate] + O=S(=O)(O)C(F)(F)F",1.3462 ± 0.0051
3,"CCCCCC[N+](CC)(CC)CC.F[B-](F)(F)F [N,N,N-triethyl-N-hexylammonium tetrafluoroborate] + O=S(=O)(O)C(F)(F)F",1.3572 ± 0.0051
4,"CCCCCCCC[N+](CC)(CC)CC.F[P-](F)(F)(F)(F)F [N,N,N-triethyl-N-octylammonium hexafluorophosphate] + O=S(=O)(O)C(F)(F)F",1.3562 ± 0.0052
5,"CCCCCCCC[N+](CC)(CC)CC.F[B-](F)(F)F [N,N,N-triethyl-N-octylammonium tetrafluoroborate] + O=S(=O)(O)C(F)(F)F",1.3583 ± 0.0051
6,CC[N+](CC)(CC)CC.[F][Sb-]([F])([F])([F])([F])[F] [tetraethylammonium hexafluoroantimonate] + O=S(=O)(O)C(F)(F)F,1.3408 ± 0.0051

# Same assay, conditions: 293.15 K; 101 kPa; Liquid; Standard Abbe refractometry; w1 = 0.3
row,refractive index,Compound
1,1.3632 ± 0.0051,"CCCC[N+](CC)(CC)CC.F[P-](F)(F)(F)(F)F [N,N,N-triethyl-N-butylammonium hexafluorophosphate] + O=S(=O)(O)C(F)(F)F"
